From US4450269A, “Mono-5-substituted-3-chloro-4H-1,2,6-thiadiazin-4-one antifungal agents” (FMC Corporation, priority 1980, dated 1984)
Where two headings read alike, the source gives them in different places.

Columns and labels:
[1] = test system: Alternaria solani; assay: Spore germination test; format: cell-based; details: AS, 48 hours
Experimental: (§1) The test chemical was dissolved or suspended in acetone in an amount such that 0.8 ml of the resulting suspension or solution, mixed with 40 ml water agar produced a water agar solution containing 40, 10, 2.5 and 1 ppm of test chemical. The resulting agar solution, at 50° C., was then divided equally between two sterile petri dishes, each having four separated quadrants, and allowed to solidify. […] quadrants of each dish were flooded with 0.1 ml of a spore suspension in sterile water. Spores of two pathogens, Erysiphe polygoni and Uromyes phaseoli, from infected plant leaves, were brushed on the remaining two quadrants. The tests were then incubated 48 hours, at 24° C.
(§2) Readings were then taken and the percentage of germinated spores calculated. From this percentage, a spore germination rating was assigned as follows: […]

[2] = test system: Botrytis cinerea; assay: Spore germination test; format: cell-based; details: BC, 48 hours
Experimental: as §1, §2

[3] = test system: Erysiphe polygoni; assay: Spore germination test; format: cell-based; details: EP, 48 hours
Experimental: as §1, §2

[4] = test system: Uromyces phaseoli; assay: Spore germination test; format: cell-based; details: UP, 48 hours
Experimental: as §1, §2

[5] = test system: Pyricularia oryzae; format: cell-based; details: PO, 48 hours
[6] = test system: Venturia inaequalis; assay: Spore germination test; format: cell-based; details: VI, 48 hours
Experimental: VI = Venturia inaequalis
as §1, §2

[7] = test system: Cladosporium cucumerinum; assay: Spore germination test; format: cell-based; details: CC, 48 hours
Experimental: CC = Cladosporium cucumerinum
as §1, §2

[8] = test system: Phytophthora infestans; format: cell-based; details: PI, 48 hours
[9] = test system: Alternaria solani; assay: Mycelial growth test; format: cell-based; details: AS, 72 hours
[10] = test system: Fusarium solani; assay: Mycelial growth test; format: cell-based; details: PS, 72 hours
[11] = test system: Sclerotinia fructicola; assay: Mycelial growth test; format: cell-based; details: SF, 72 hours
Excerpt: | SF = Sclerotinia fructicola

[12] = test system: Pyricularia oryzae; assay: microbe, parasite or virus in culture; format: cell-based; details: PO, 72 hours
[13] = test system: Pythium ultimum; assay: Mycelial growth test; format: cell-based; details: PU, 72 hours
[14] = test system: Rhizoctonia solani; assay: Mycelial growth test; format: cell-based; details: RS, 72 hours
Excerpt: | RS = Rhizoctonia solani

[15] = test system: Cladosporium cucumerinum; assay: Mycelial growth test; format: cell-based; details: CC, 72 hours
Excerpt: |CC = Cladosporium cucumerinum

[16] = test system: Phytophthora infestans; assay: whole plant or invertebrate; format: in vivo; details: 150 ppm, protective
[17] = test system: Pyricularia oryzae; assay: whole plant or invertebrate; format: in vivo; details: 150 ppm, 24 hours after inoculation
[18] = test system: Fusarium solani; assay: Soil treatment, bean root rot; format: in vivo; details: 150 ppm suspension, 3.8 mg active per pot
Experimental: In a similar manner the soil around a bean seedling was drenched with a sufficient amount of 150 ppm suspension of test chemical to provide 3.8 mg active per pot. Twenty-four hours later the soil was inoculated with a suspension of minced mycelium of Fusarium solani. The inoculated plants were then placed in a greenhouse, evaluated after fourteen days, and percent control of root rot damage calculated. The results, reported in Table III, indicate only a few of the compounds tested are effective in treating Bean Root Rot but that these provide a high degree of control.

[19] = test system: Pythium ultimum and Rhizoctonia solani; assay: Soil/seed treatment, cucumber damping-off complex; format: in vivo; details: 150 ppm suspension, 3.75 to 3.8 mg per pot
Experimental: Containers having a volume of about 0.25 l. were 2/3 filled with topsoil and 25 cucumber c.v. [Straight Eight` seeds deposited on the soil surface of each pot. A suspension containing 150 ppm of the test chemical was poured over the seeds and into the soil in sufficient quantity to provide 3.75 to 3.8 mg active ingredient per pot.
Fungi used in this test were Pythium ultimum and Rhizoctonia solani. These fungi were each grown on potato dextrose agar for three to six days. The agar plus mycelium was then minced in a blender with water and 10 ml of the resulting slurry of minced mycelium poured over the seeds.
Following inoculation approximately 15 mm of topsoil was spread over the seeds, the container capped and incubated at 4° C. in darkness for three days, then transferred to a greenhouse (27° C.) for 10-14 days, at which time stand counts were made. Captan was used as a standard for comparison. Based on stand counts on Efficacy Index was calculated for each test chemical as follows: [formula]

[20] = test system: Uromyces phaseoli; details: in vivo
[21] = test system: Uromyces phaseoli; details: in vivo; remark: listed apart in the source
[22] = test system: Erysiphe polygoni; details: in vivo
[23] = test system: Cercospora beticola; details: in vivo
[24] = test system: Helminthosporium oryzae; assay: Mycelial growth test; details: HO, 72 hours

Substance: 3-chloro-5-(bromophenoxy)-4H-1,2,6-thiadiazin-4-one [Compound 33]
- Spore Germination Rating ([1]; 1.0 ppm): 1 (10-40)
- Spore Germination Rating ([1]; 2.5 ppm): 0 (0-10)
- Spore Germination Rating ([1]; 10 ppm): 0 (0-10)
- Spore Germination Rating ([1]; 40 ppm): 0 (0-10)
- Spore Germination Rating ([2]; 1.0 ppm): 4 (80-100)
- Spore Germination Rating ([2]; 2.5 ppm): 3 (60-80)
- Spore Germination Rating ([2]; 10 ppm): 0 (0-10)
- Spore Germination Rating ([2]; 40 ppm): 0 (0-10)
- Spore Germination Rating ([3]; 1.0 ppm): 0 (0-10)
- Spore Germination Rating ([3]; 2.5 ppm): 0 (0-10)
- Spore Germination Rating ([3]; 10 ppm): 0 (0-10)
- Spore Germination Rating ([3]; 40 ppm): 0 (0-10)
- Spore Germination Rating ([4]; 1.0 ppm): 0 (0-10)
- Spore Germination Rating ([4]; 2.5 ppm): 0 (0-10)
- Spore Germination Rating ([4]; 10 ppm): 0 (0-10)
- Spore Germination Rating ([4]; 40 ppm): 0 (0-10)
- Spore Germination Rating ([5]; 1.0 ppm): 2 (40-60)
- Spore Germination Rating ([5]; 2.5 ppm): 0 (0-10)
- Spore Germination Rating ([5]; 10 ppm): 0 (0-10)
- Spore Germination Rating ([5]; 40 ppm): 0 (0-10)
- Spore Germination Rating ([6]; 1.0 ppm): 0 (0-10)
- Spore Germination Rating ([6]; 2.5 ppm): 0 (0-10)
- Spore Germination Rating ([6]; 10 ppm): 0 (0-10)
- Spore Germination Rating ([6]; 40 ppm): 0 (0-10)
- Spore Germination Rating ([7]; 1.0 ppm): 0 (0-10)
- Spore Germination Rating ([7]; 2.5 ppm): 0 (0-10)
- Spore Germination Rating ([7]; 10 ppm): 0 (0-10)
- Spore Germination Rating ([7]; 40 ppm): 0 (0-10)
- Spore Germination Rating ([8]; 1.0 ppm): 0 (0-10)
- Spore Germination Rating ([8]; 2.5 ppm): 0 (0-10)
- Spore Germination Rating ([8]; 10 ppm): 0 (0-10)
- Spore Germination Rating ([8]; 40 ppm): 0 (0-10)
- Percent Fungus Growth Inhibition ([9]; 5 ppm): 100%
- Percent Fungus Growth Inhibition ([9]; 10 ppm): 100%
- Percent Fungus Growth Inhibition ([9]; 20 ppm): 100%
- Percent Fungus Growth Inhibition ([9]; 40 ppm): 100%
- Percent Fungus Growth Inhibition ([10]; 5 ppm): 3%
- Percent Fungus Growth Inhibition ([10]; 10 ppm): 33%
- Percent Fungus Growth Inhibition ([10]; 20 ppm): 53%
- Percent Fungus Growth Inhibition ([10]; 40 ppm): 93%
- Percent Fungus Growth Inhibition ([11]; 5 ppm): 44%
- Percent Fungus Growth Inhibition ([11]; 10 ppm): 61%
- Percent Fungus Growth Inhibition ([11]; 20 ppm): 94%
- Percent Fungus Growth Inhibition ([11]; 40 ppm): 100%
- Percent Fungus Growth Inhibition ([12]; 5 ppm): 53%
- Percent Fungus Growth Inhibition ([12]; 10 ppm): 68%
- Percent Fungus Growth Inhibition ([12]; 20 ppm): 100%
- Percent Fungus Growth Inhibition ([12]; 40 ppm): 100%
- Percent Fungus Growth Inhibition ([13]; 5 ppm): 69%
- Percent Fungus Growth Inhibition ([13]; 10 ppm): 87%
- Percent Fungus Growth Inhibition ([13]; 20 ppm): 96%
- Percent Fungus Growth Inhibition ([13]; 40 ppm): 100%
- Percent Fungus Growth Inhibition ([14]; 5 ppm): 31%
- Percent Fungus Growth Inhibition ([14]; 10 ppm): 42%
- Percent Fungus Growth Inhibition ([14]; 20 ppm): 64%
- Percent Fungus Growth Inhibition ([14]; 40 ppm): 100%
- Percent Fungus Growth Inhibition ([15]; 5 ppm): 11%
- Percent Fungus Growth Inhibition ([15]; 10 ppm): 28%
- Percent Fungus Growth Inhibition ([15]; 20 ppm): 61%
- Percent Fungus Growth Inhibition ([15]; 40 ppm): 83%
- Percent Disease Control, foliar, tomato late blight [16]: 0%
- Percent Disease Control, curative, rice blast [17]: 0%
- Percent Disease Control, seed/soil, bean root rot [18]: 95%
- Efficacy Index, seed/soil, cucumber damping-off complex [19]: 0
- Percent Disease Control, foliar, bean rust [20]: 100%
- Percent Disease Control, curative, bean rust [21]: 0%
- Percent Disease Control, curative, bean powdery mildew [22]: 95%
- Percent Disease Control, curative, sugar beet leaf spot [23]: 0%
- Percent Fungus Growth Inhibition ([24]; 5 ppm): 83%
- Percent Fungus Growth Inhibition ([24]; 10 ppm): 91%
- Percent Fungus Growth Inhibition ([24]; 20 ppm): 100%
- Percent Fungus Growth Inhibition ([24]; 40 ppm): 100%
